Measured values as given in PMC7821381, “Multi-Targeted Anticancer Activity of Imidazolate Phosphane Gold(I) Compounds by Inhibition of DHFR and TrxR in Breast Cancer Cells” (Frontiers in Chemistry, 2021).
Like-named read-outs stand apart in the source and are kept apart here. Values belong to the compound of their own block, whether it stands above or below them.

Legend:
SKBR3 cells [1] = test system: SKBR3 cells; set-up: method as in Serova et al., 2006; conditions: SKBR3, 24 h; ref Serova et al., 2006; cited from earlier work
MDA-MB231 cells [2] = test system: MDA-MB231 cells; set-up: method as in Gambini et al., 2018; conditions: MDA-MB231, 48 h; ref Gambini et al., 2018; cited from earlier work
A17 cells [3] = test system: A17 cells; set-up: method as in Gambini et al., 2018; conditions: A17, 24 h; ref Gambini et al., 2018; cited from earlier work
SKBR3 cells [4] = assay: MTT cell viability assay on SKBR3 cells; assay type: cell-based, human
From the text: (§1) Human MDA-MB-231 (ER–/PR–/HER2–) and SK-BR-3 (ER–/PR–/HER2+) cells were obtained from American Type Culture Collection (Rockville, MD) and cultured in Dulbecco's Modified Essential Medium (DMEM, Gibco, Life Technologies) supplemented with 10% fetal bovine serum (FBS, Gibco, Life Technologies) and 1% penicillin–streptomycin (Gibco, Life Technologies). A17 cells were established from a spontaneous lobular carcinoma that arose in an FVB/neuT mouse (Galiè et al., [2005]), and maintained in DMEM plus 20% FBS and 1% penicillin-streptomycin. Cells were cultured at 37°C under humidified atmosphere with 5% CO2.
(§2) Stock solutions were prepared for each gold(I) compound (50 mM) using dimethyl sulfoxide (DMSO) (Sigma-Aldrich) as solvent. The effects of gold(I) compounds on SKBR3, A17 and MDA-MB231 cells viability were evaluated by seeding, respectively, 10, ^*10^3, 2.5 ^*10^3, 7, ^*10^3 cells/well in 96 wells plates in complete medium (DMEM supplemented with FBS) and compared to those of cisplatin. The day after, fresh medium containing vehicle alone (DMSO, 1 % v/v final concentration) or increasing concentrations of each compound ranging from 0.1 to 100 μM was added. Cell viability was determined using a MTT [3-(4,5-dimethylthiazol-2-yl)-2,5-diphenyl-2H-tetrazolium bromide Sigma Aldrich, St. Louis, MO] assay, which is based on the conversion of MTT to formazan crystals by mitochondrial enzymes, after 24, 48, and 72 h. The formazan deposits were dissolved in DMSO and the absorbance of each well was measured at 540 nm in Multiskan Ascent 96/384 Plate Reader. Each drug concentration was evaluated with 8 replicates and each experiment was repeated three times. At the end of the experiments a dose–response curve was plotted, and the IC50 concentrations were determined. Statistical analysis was performed using One-Way ANOVA analysis of variance followed by Dunnett's Multiple Comparison Test. Quantitative data are presented as means ± SEM. Differences were considered significant at ^*P ≤ 0.0332; ^**P ≤ 0.0021; ^***P ≤ 0.0002; ^****P ≤ 0.0001.
(§3) IC50 values were calculated for each of the cell lines tested, by fitting the concentration-effect curves data obtained in the three experiments with the sigmoid-Emax model using nonlinear regression, weighted by the reciprocal of the square of the predicted effect.

DNA = test system: DNA; set-up: method as in Nafisi et al., 2007; conditions: ref Nafisi et al., 2007; cited from earlier work
MDA-MB231 cells [5] = assay: MTT cell viability assay on MDA-MB231 cells; assay type: cell-based, human; conditions: MDA-MB231, 24 h, ± S. D.
From the text: as §1
as §2, with “Statistical analysis was performed using One-Way ANOVA analysis of variance followed by Dunnett's Multiple Comparison Test.” left out, “Differences were considered significant at ^*P ≤ 0.0332; ^**P ≤ 0.0021; ^***P ≤ 0.0002; ^****P ≤ 0.0001.” left out
as §3

A17 cells [6] = assay: MTT cell viability assay on A17 cells; assay type: cell-based, murine; conditions: A17, 24 h, ± S. D.
From the text: as §1
as §2, with “Statistical analysis was performed using One-Way ANOVA analysis of variance followed by Dunnett's Multiple Comparison Test.” left out, “Differences were considered significant at ^*P ≤ 0.0332; ^**P ≤ 0.0021; ^***P ≤ 0.0002; ^****P ≤ 0.0001.” left out
as §3

[7] = Stability in physiological condition; assay type: physicochemical

Compound: N.N.[Cl][Pt][Cl] [Cisplatin]
IC50 (SKBR3 cells [1]): 43 ± 7 µM
IC50 (MDA-MB231 cells [2]): 50.5 ± 2 µM
IC50 (A17 cells [3]): 15.9 ± 1.17 µM

Compound: O=C(O)c1ccccc1[PH]([Au][Cl])(c1ccccc1)c1ccccc1 [Compound 1, 2-benzoic-diphenylphosphanegold chloride]
cytotoxic activity in MTT screening (SKBR3 cells [4]; SKBR3 cells, 72 h (Figure 1S) and 48 h (Figure 2)): did not show relevant cytotoxic activity

Compound: CN(C)c1ccc2cc3ccc(N(C)C)cc3nc2c1 [acridine orange]
binding constant of classical intercalators to DNA (DNA): 26900 M⁻¹

Compound: CC[n+]1c(-c2ccccc2)c2cc(N)ccc2c2ccc(N)cc21 [ethidium bromide]
binding constant of classical intercalators to DNA (DNA): 65800 M⁻¹

Compound: CN(C)c1ccc2nc3ccc(=[N+](C)C)cc-3sc2c1 [methylene blue]
binding constant of classical intercalators to DNA (DNA): 21300 M⁻¹

IC50 (SKBR3 cells [4]; SKBR3, 24 h, ± S. D.): 12.3 ± 1.1 µM
IC50 (MDA-MB231 cells [5]): 12.8 ± 0.7 µM
stability in physiological condition [7]: less stable in physiological condition
Compound: (3,5-dintropyrazolyl-1H-gold(I)-(triphenylphosphane) [Compound 4]
IC50 (A17 cells [6]): 11 ± 1 µM
